The source of these data is patent US11179384B2, “Treatment of nonalcoholic fatty liver disease” (TAKEDA GMBH, priority 2016, dated 2021).

Molecules are shown by their SMILES.

For test [1], the system named is Tumor Necrosis Factor Alpha (TNFα). Put plainly: Systemic TNFα release in LPS-challenged Sprague Dawley rats. The test is classed as in vivo. Particulars: SD rats; 0.1, 0.3, 1, 3 and 10 mg/kg p.o. 1 h before LPS 20 μg/kg i.v.; plasma 1 h after LPS; significant at all doses. Here is the method:
Compound A was administered 1 h before LPS challenge at doses of 0.1, 0.3, 1, 3 and 10 mg/kg (n=8 animals per dose group). An LPS and vehicle treated control group of n=8 animals was enclosed. Compound A or vehicle was given per os (p.o.) by gavage (administration volume: 10 mL/kg b.w.). LPS was injected intravenously (i.v.) at a dose of 20 μg/kg (administration volume: 1 mL/kg b.w.) 1 h after compound or vehicle administration.
One hour after LPS-challenge, the animals were sacrificed by inhalative isoflurane anaesthesia (5%; flow rate: 2-3 L/min) and subsequent cervical dislocation. Heparinized blood was obtained by heart puncture. Blood was centrifuged (21,000×g, 4° C., 10 min), and plasma samples were kept frozen at −20° C. until determination of TNFα levels by ELISA.

In test [2] the test system is Homozygous LDLR-KO mice. Put plainly: Prophylactic effects in a mouse model of NASH (LDLR-KO mice, mCDAA diet). Particulars: LDLR-KO mice on mCDAA diet, 1, 3 and 10 mg/kg p.o. QD for 7 weeks. The test is classed as in vivo. As for the experimental part: Prophylactic effects of Compound A on parameters such as a) hepatic fibrosis formation, b) hepatic triglyceride formation and c) plasma ALT reduction were examined in a rodent model of NASH.
Homozygous low-density lipoprotein receptor knockout (LDLR-KO) mice were fed with chow or modified choline deficient, L-amino acid-defined (mCDAA) diet (A08111307, Research Diets, USA). After 1 week under chow or mCDAA diet, the mice were orally dosed with Compound A (1, 3 and 10 mg/5 ml/kg, QD, n=10; suspension in 0.5 w/v % methylcellulose suspension) for 7 weeks.

As for `CCOc1cc2c(cc1OC)C(c1ccc(=O)n(C)c1)=N[C@@H]1CC[C@@H](O)C[C@H]21` [Compound A, 5-((2R,4aR,10bR)-9-Ethoxy-2-hydroxy-8-methoxy-1,2,3,4,4a,10b-hexahydro-phenanthridin-6-yl)-1-methyl-1H-pyridin-2-one], the “mean TNFα in blood plasma” value in test [1] is given as “dose-dependently reduced”. Besides, in test [2], the Body weight entry was “slightly decreased”, the “Hepatic triglyceride (TG) content” value is “significantly reduced”, the Liver weight result was “dose dependently decreased” and the “epididymal white adipose tissue (surrogate for body fat mass)” value is “dose dependently decreased”. For the same compound, in test [2], the food intake result is reported as “no change” and the “plasma ALT levels” value is listed as “significantly reduced”. The hepatic fibrosis area entry in test [2] (started after 1 week of diet) is “dose-dependent reduction”.
